# Measurements from patent publication US20240343699A1, “DERIVATIVES OF SUBSTITUTED MORPHOLINES AND USES THEREOF” (Supernus Pharmaceuticals, Inc., priority 2023, published 2024).
# Values joined by “and” are separate entries in the source; they are usually repeats but may differ in a detail not shown here. Equal entries are not always repeated.
# What was measured:
# [1] = Metabolic stability in human intestinal homogenate; assay type: in vitro ADME; details: for half-life at 1 μM / microsomal CLint at 1 μM: pH 7.2
# Protocol: Incubation Buffer (PBK): 50 mM potassium phosphate buffer (PBK) was prepared from 1 M potassium phosphate buffer, pH 7.2. […] The dilution of 1 mM intermediate was prepared from 10 mM stock with 90% methanol/water, then […] working solutions were prepared by diluting the 1 mM intermediates with 50 mM PBK. […] Prior to use, the stock solutions were brought to room temperature and thoroughly mixed. […] Cofactors Solutions: the cofactor solution was made at 10 mM of NADPH (nicotinamide-adenine dinucleotide phosphate, reduced form) in 50 mM PBK buffer.
# (§1) The incubation was carried out in 96-well plates. The intestinal homogenate mixture solution was added to 96-well plates (80 μL/well) in duplicate. […] Reaction was initiated by adding cofactor solution at 10 µL/well. The plates were incubated at 37° C. in a water bath with shaking. […] The final organic solvent content in the incubation was ≤1%.
# At specified time points, i.e., 5, 10, 20, 30 and 60 minutes, NCF60 (no cofactor at 60 min, without adding NADPH replaced with 50 mM PBK buffer) reaction was stopped by adding three volumes of stop solution. The time zero (To) samples were prepared by adding three volumes of stop solution to intestinal homogenate samples, followed by addition of test article or control, and cofactor solution 10 μL/well.
# Subsequently, 100 μL of supernatant was removed from each well, diluted with 100 μL pure water and analyzed by LC/MS/MS.
# A study was conducted to examine the metabolic stability. […] Positive controls: 7-hydroxycoumarin and Testosterone.
# [2] = In vitro stability in human plasma; assay type: in vitro ADME; details: for half-life at 2 μM / % Remaining / Analyte Peak area/IS Peak area Mean (N = 2): human plasma, 2.0 μM; for % Remaining at 60 min (Mean): Human plasma, final concentration 2 μM
# Protocol: Test Article Solutions: COMPOUND A, COMPOUND B and COMPOUND C stock solutions at 10 mM were prepared in dimethyl sulfoxide (DMSO). Further dilution with DMSO was made to prepare 2.0 mM. The working solutions of 50 μM was prepared with 20% MeOH/water. […] Prior to use, the stock solutions were brought to room temperature and thoroughly mixed and prepared same as described above.
# Incubations were conducted in 96-well plate format. The time points defined for this study are 0, 5, 15, 30 and 60 minutes.
# An appropriate volume of plasma from test species were added to a 96-deep well plate, and COMPOUND A, COMPOUND B and COMPOUND C working solution was spiked into the plasma in duplicate to achieve a final concentration of 2.0 μM. For positive controls, the rat plasma was spiked with enalapril, the dog plasma spiked with bisacodyl and the human plasma was spiked with propantheline. All spiked plasma sample plates were incubated in a water bath at 37° C. with shaking.
# At the end of each time point, samples were immediately quenched with three volume of cold quenching solution.
# A study was conducted to examine the plasma stability. Test Compounds: COMPOUND D, COMPOUND E, and Viloxazine. Positive controls: Enalapril and Propantheline.
# [3] = 80 mg/kg PO; for Clinical observation (tolerability): beagle dogs; for plasma concentration of the analog itself: LLOQ 3.0 ng/mL
# [4] = Metabolic stability in human liver S9; assay type: in vitro ADME; details: for half-life at 1 μM / microsomal CLint at 1 μM: pH 7.2
# Protocol: Incubation Buffer (PBK): 50 mM potassium phosphate buffer was prepared from 1 M potassium phosphate buffer, pH 7.2. […] The dilution of […] was prepared by 90% methanol/10% DMSO, then 10 μM working solutions were prepared by diluting the 0.1 mM intermediates with 50 mM PBK. […] Prior to use, the stock solutions were brought to room temperature and thoroughly mixed. […] Cofactors Solutions: the mixture of cofactors solution was made at 10 mM of NADPH and 10 mM of UDPGA in PBK buffer.
# as §1, with “liver S9 working solutions were” for “intestinal homogenate mixture solution was”, “mixture” for “solution at”, “μL/well.” for “µL/well.”
# At specified time points, i.e., 5, 10, 20, 30 and 60 minutes, NCF60 (without adding NADPH (Nicotinamide-adenine dinucleotide phosphate, reduced form) and UDPGA (Uridine 5′-diphosphoglucuronic acid trisodium salt) replaced with PBK buffer reaction was stopped by adding three volumes of stop solution. The time zero (To) samples were prepared by adding three volumes of stop solution to liver S9 samples, followed by addition of test article or control, and cofactor mixture solution 10 μL/well.
# Subsequently, 100 μL of supernatant.
# Positive controls: 7-ethoxycoumarin and 7-hydroxycoumarin.
# [5] = Tissue binding in CD-1 mouse brain homogenate (equilibrium dialysis); details: for stability in mouse brain homogenate: dialysis conditions
# [6] = human intestinal homogenate, 1 μM, 0 min
# [7] = human intestinal homogenate, 1 μM, 5 min
# [8] = human intestinal homogenate, 1 μM, 10 min
# [9] = human intestinal homogenate, 1 μM, 20 min
# [10] = human intestinal homogenate, 1 μM, 30 min
# [11] = human intestinal homogenate, 1 μM, 60 min
# [12] = human intestinal homogenate, 1 μM, NCF60 (no cofactor at 60 min)
# [13] = human intestinal homogenate, 1 μM
# [14] = human liver S9, 1 μM, NCF60 (no cofactors, 60 min)
# [15] = human liver S9, 1 μM, read-out: CLint(LS9)
# [16] = mouse brain homogenate, 2 μM, 4 hr dialysis (COMPOUND A 1 hr)
# [17] = intestinal homogenate, Human intestinal homogenates
# [18] = intestinal homogenate, Human intestinal homogenates, read-out: CLint(mic.)
# [19] = 1 μM in Human liver S9 fractions
# [20] = 1 μM in Human liver S9 fractions, read-out: CLint(mic.)
smiles,measurement,setting,value
CCOc1ccccc1OC[C@@H]1CN(C(=O)OC(C)OC(=O)[C@@H](N)C(C)C)CCO1 (stereo partly drawn) [COMPOUND A],% Remaining,[1]; [6],100%
same,Analyte Peak area/IS Peak area Mean (n = 2),[1]; [6],0.269
same,% Remaining,[1]; [7],0%
same,Analyte Peak area/IS Peak area Mean (n = 2),[1]; [7],0.000
same,% Remaining,[1]; [8],0%
same,Analyte Peak area/IS Peak area Mean (n = 2),[1]; [8],0.000
same,% Remaining,[1]; [9],0%
same,Analyte Peak area/IS Peak area Mean (n = 2),[1]; [9],0.000
same,% Remaining,[1]; [10],0%
same,Analyte Peak area/IS Peak area Mean (n = 2),[1]; [10],0.000
same,% Remaining,[1]; [11],0%
same,Analyte Peak area/IS Peak area Mean (n = 2),[1]; [11],0.000
same,% Remaining,[1]; [12],0%
same,Analyte Peak area/IS Peak area Mean (n = 2),[1]; [12],0.000
same,half-life at 1 μM,[1]; [13],< 2.5 min
same,half-life at 2 μM,[2],94.9 min
same,% Remaining,[2]; 0 min,100%
same,Analyte Peak area/IS Peak area Mean (N = 2),[2]; 0 min,2.31
same,% Remaining,[2]; 5 min,107%
same,Analyte Peak area/IS Peak area Mean (N = 2),[2]; 5 min,2.46
same,% Remaining,[2]; 15 min,93.1%
same,Analyte Peak area/IS Peak area Mean (N = 2),[2]; 15 min,2.15
same,% Remaining,[2]; 30 min,80.8%
same,Analyte Peak area/IS Peak area Mean (N = 2),[2]; 30 min,1.86
same,Analyte Peak area/IS Peak area Mean (N = 2),[2]; 60 min,1.57
same,Clinical observation (tolerability),[3],well tolerated
same,plasma concentration of the analog itself,[3],mostly below the LLOQ
same,% Remaining,"[4]; human liver S9, 1 μM, 0 min",100%
same,Analyte Peak area/IS Peak area Mean × 100 (n = 2),"[4]; human liver S9, 1 μM, 0 min",11.7
same,% Remaining,"[4]; human liver S9, 1 μM, 5 min",1.4%
same,Analyte Peak area/IS Peak area Mean × 100 (n = 2),"[4]; human liver S9, 1 μM, 5 min",0.164
same,% Remaining,"[4]; human liver S9, 1 μM, 10 min",1.2%
same,Analyte Peak area/IS Peak area Mean × 100 (n = 2),"[4]; human liver S9, 1 μM, 10 min",0.143
same,% Remaining,"[4]; human liver S9, 1 μM, 20 min",0.3%
same,Analyte Peak area/IS Peak area Mean × 100 (n = 2),"[4]; human liver S9, 1 μM, 20 min",0.039
same,% Remaining,"[4]; human liver S9, 1 μM, 30 min",0.2%
same,Analyte Peak area/IS Peak area Mean × 100 (n = 2),"[4]; human liver S9, 1 μM, 30 min",0.021
same,% Remaining,"[4]; human liver S9, 1 μM, 60 min",0.01% and 0.0%
same,Analyte Peak area/IS Peak area Mean × 100 (n = 2),"[4]; human liver S9, 1 μM, 60 min",0.001
same,% Remaining,[4]; [14],0.1%
same,Analyte Peak area/IS Peak area Mean × 100 (n = 2),[4]; [14],0.008
same,half-life at 1 μM,"[4]; human liver S9, 1 μM",5.76 min
same,microsomal CLint at 1 μM,[4]; [15],241 µL/min/mg
same,stability in mouse brain homogenate,[5]; 2 μM,unstable
same,Analyte Peak area/IS Peak area CR (buffer side),[5]; [16],0.0003 and 0.0002
same,Analyte Peak area/IS Peak area Co (time zero),"[5]; mouse brain homogenate, 2 μM",0.010 and 0.012
same,% remaining after 1 hr,"[5]; mouse brain homogenate, 1 hr (data not shown)","^dCan't be determined due to instability of test article, which has 1.3% remaining after 1 hr (data not shown)."
CCOc1ccccc1OCC1CN(C(=O)OC(OC(=O)[C@@H](N)C(C)C)C(C)C)CCO1 (stereo partly drawn) [COMPOUND E],% Remaining at 60 min,[1]; Human intestinal homogenates,0.90%
same,half-life at 1 μM,[1]; [17],10.8 min
same,microsomal CLint at 1 μM,[1]; [18],128 µL/min/mg
same,% Remaining at 60 min (Mean),[2],90.3%
same,% Remaining at 60 min,[4]; [19],0.76%
same,half-life at 1 μM,[4]; [19],8.9 min
same,microsomal CLint at 1 μM,[4]; [20],155 µL/min/mg
CCOc1ccccc1OC[C@@H]1CN(C(=O)OC(OC(=O)[C@@H](N)C(C)C)C(C)C)CCO1 (stereo partly drawn) [COMPOUND B],% Remaining,[1]; [6],100%
same,Analyte Peak area/IS Peak area Mean (n = 2),[1]; [6],0.275
same,% Remaining,[1]; [7],7.3%
same,Analyte Peak area/IS Peak area Mean (n = 2),[1]; [7],0.020
same,% Remaining,[1]; [8],7.1%
same,Analyte Peak area/IS Peak area Mean (n = 2),[1]; [8],0.020
same,% Remaining,[1]; [9],6.1%
same,Analyte Peak area/IS Peak area Mean (n = 2),[1]; [9],0.017
same,% Remaining,[1]; [10],2.7%
same,Analyte Peak area/IS Peak area Mean (n = 2),[1]; [10],0.007
same,% Remaining,[1]; [11],0.57%
same,Analyte Peak area/IS Peak area Mean (n = 2),[1]; [11],0.002
same,% Remaining,[1]; [12],0.8%
same,Analyte Peak area/IS Peak area Mean (n = 2),[1]; [12],0.002
same,half-life at 1 μM,[1]; [13],10.3 min
same,microsomal CLint at 1 μM,"[1]; human intestinal homogenate, 1 μM, read-out: CLint(HIH)",135 µL/min/mg
same,half-life at 2 μM,[2],> 187 min
same,% Remaining,[2]; 0 min,100%
same,Analyte Peak area/IS Peak area Mean (N = 2),[2]; 0 min,1.90
same,% Remaining,[2]; 5 min,90.6%
same,Analyte Peak area/IS Peak area Mean (N = 2),[2]; 5 min,1.72
same,% Remaining,[2]; 15 min,94.5%
same,Analyte Peak area/IS Peak area Mean (N = 2),[2]; 15 min,1.79
same,% Remaining,[2]; 30 min,87.1%
same,Analyte Peak area/IS Peak area Mean (N = 2),[2]; 30 min,1.65
same,% Remaining,[2]; 60 min,91.5%
same,Analyte Peak area/IS Peak area Mean (N = 2),[2]; 60 min,1.73
same,Clinical observation (tolerability),[3],well tolerated
same,plasma concentration of the analog itself,[3],mostly below the LLOQ
same,% Remaining,"[4]; human liver S9, 1 μM, 0 min",100%
same,Analyte Peak area/IS Peak area Mean × 100 (n = 2),"[4]; human liver S9, 1 μM, 0 min",8.22
same,% Remaining,"[4]; human liver S9, 1 μM, 5 min",14%
same,Analyte Peak area/IS Peak area Mean × 100 (n = 2),"[4]; human liver S9, 1 μM, 5 min",1.12
same,% Remaining,"[4]; human liver S9, 1 μM, 10 min",12%
same,Analyte Peak area/IS Peak area Mean × 100 (n = 2),"[4]; human liver S9, 1 μM, 10 min",0.973
same,% Remaining,"[4]; human liver S9, 1 μM, 20 min",4.2%
same,Analyte Peak area/IS Peak area Mean × 100 (n = 2),"[4]; human liver S9, 1 μM, 20 min",0.342
same,% Remaining,"[4]; human liver S9, 1 μM, 30 min",1.6%
same,Analyte Peak area/IS Peak area Mean × 100 (n = 2),"[4]; human liver S9, 1 μM, 30 min",0.131
same,% Remaining,"[4]; human liver S9, 1 μM, 60 min",0.24% and 0.2%
same,Analyte Peak area/IS Peak area Mean × 100 (n = 2),"[4]; human liver S9, 1 μM, 60 min",0.020
same,% Remaining,[4]; [14],1.2%
same,Analyte Peak area/IS Peak area Mean × 100 (n = 2),[4]; [14],0.099
same,half-life at 1 μM,"[4]; human liver S9, 1 μM",7.74 min
same,microsomal CLint at 1 μM,[4]; [15],179 µL/min/mg
same,stability in mouse brain homogenate,[5]; 2 μM,unstable
same,% Unbound Experimental,"[5]; mouse brain homogenate, 2 μM, 4 hr",15.5%
same,Analyte Peak area/IS Peak area CD (brain homogenate side),[5]; [16],0.009 and 0.010
same,Analyte Peak area/IS Peak area CR (buffer side),[5]; [16],0.001 and 0.002
same,Analyte Peak area/IS Peak area Co (time zero),"[5]; mouse brain homogenate, 2 μM",0.057 and 0.059 and 0.064
CCOc1ccccc1OCC1CN(C(=O)OC(C)OC(=O)[C@H](N)C(C)C)CCO1 (stereo partly drawn) [COMPOUND D],% Remaining at 60 min,[1]; Human intestinal homogenates,0.00%
same,half-life at 1 μM,[1]; [17],0.85 min
same,microsomal CLint at 1 μM,[1]; [18],1630 µL/min/mg
same,% Remaining at 60 min (Mean),[2],77.1%
same,% Remaining at 60 min,[4]; [19],0.00%
same,half-life at 1 μM,[4]; [19],1.86 min
same,microsomal CLint at 1 μM,[4]; [20],746 µL/min/mg
